{"source": "the NIST ThermoML archive (doi:10.1016/j.jct.2016.02.016)", "key": {"[1]": {"assay": "refractive index (Na D-line) (dimensionless); xn = mol fraction of the nth substance listed", "conditions": "100 kPa, Liquid, Standard Abbe refractometry"}, "[2]": {"assay": "xn = mol fraction of the nth substance listed", "conditions": "293.15 K, 100 kPa, Liquid; for speed of sound: Frequency=3 MHz, Sing-around technique in a fixed-path interferometer; for mass density: Vibrating tube method"}}, "note": "± gives the expanded uncertainty stated by the source."}
{"smiles": "CCCC(C)=O", "note": "[pentan-2-one] + CN(C)C=O", "values": [{"measurement": "refractive index", "setting": "[1]; 293.15 K, x2 = 0", "result": "1.39026 ± 0.0042"}, {"measurement": "refractive index", "setting": "[1]; 293.15 K, x2 = 0.056", "result": "1.39208 ± 0.0042"}, {"measurement": "refractive index", "setting": "[1]; 293.15 K, x2 = 0.1141", "result": "1.39408 ± 0.0042"}, {"measurement": "refractive index", "setting": "[1]; 293.15 K, x2 = 0.1531", "result": "1.39541 ± 0.0042"}, {"measurement": "refractive index", "setting": "[1]; 293.15 K, x2 = 0.2063", "result": "1.39735 ± 0.0042"}, {"measurement": "refractive index", "setting": "[1]; 293.15 K, x2 = 0.2588", "result": "1.39918 ± 0.0042"}, {"measurement": "refractive index", "setting": "[1]; 293.15 K, x2 = 0.3089", "result": "1.40106 ± 0.0042"}, {"measurement": "refractive index", "setting": "[1]; 293.15 K, x2 = 0.3594", "result": "1.40295 ± 0.0042"}, {"measurement": "refractive index", "setting": "[1]; 293.15 K, x2 = 0.4006", "result": "1.40453 ± 0.0042"}, {"measurement": "refractive index", "setting": "[1]; 293.15 K, x2 = 0.4488", "result": "1.40643 ± 0.0042"}, {"measurement": "refractive index", "setting": "[1]; 293.15 K, x2 = 0.4999", "result": "1.40845 ± 0.0042"}, {"measurement": "refractive index", "setting": "[1]; 293.15 K, x2 = 0.5466", "result": "1.41036 ± 0.0043"}, {"measurement": "refractive index", "setting": "[1]; 293.15 K, x2 = 0.5976", "result": "1.41245 ± 0.0043"}, {"measurement": "refractive index", "setting": "[1]; 293.15 K, x2 = 0.6581", "result": "1.41495 ± 0.0043"}, {"measurement": "refractive index", "setting": "[1]; 293.15 K, x2 = 0.6992", "result": "1.41668 ± 0.0043"}, {"measurement": "refractive index", "setting": "[1]; 293.15 K, x2 = 0.7528", "result": "1.41906 ± 0.0043"}, {"measurement": "refractive index", "setting": "[1]; 293.15 K, x2 = 0.8029", "result": "1.42129 ± 0.0043"}, {"measurement": "refractive index", "setting": "[1]; 293.15 K, x2 = 0.8461", "result": "1.42325 ± 0.0043"}, {"measurement": "refractive index", "setting": "[1]; 293.15 K, x2 = 0.9017", "result": "1.42583 ± 0.0043"}, {"measurement": "refractive index", "setting": "[1]; 293.15 K, x2 = 0.9496", "result": "1.42811 ± 0.0043"}, {"measurement": "refractive index", "setting": "[1]; 298.15 K, x2 = 0", "result": "1.38793 ± 0.0042"}, {"measurement": "refractive index", "setting": "[1]; 298.15 K, x2 = 0.0568", "result": "1.38979 ± 0.0042"}, {"measurement": "refractive index", "setting": "[1]; 298.15 K, x2 = 0.1", "result": "1.39128 ± 0.0042"}, {"measurement": "refractive index", "setting": "[1]; 298.15 K, x2 = 0.1526", "result": "1.3931 ± 0.0042"}, {"measurement": "refractive index", "setting": "[1]; 298.15 K, x2 = 0.1895", "result": "1.39442 ± 0.0042"}, {"measurement": "refractive index", "setting": "[1]; 298.15 K, x2 = 0.2545", "result": "1.3967 ± 0.0042"}, {"measurement": "refractive index", "setting": "[1]; 298.15 K, x2 = 0.3298", "result": "1.39955 ± 0.0042"}, {"measurement": "refractive index", "setting": "[1]; 298.15 K, x2 = 0.3502", "result": "1.40029 ± 0.0042"}, {"measurement": "refractive index", "setting": "[1]; 298.15 K, x2 = 0.3956", "result": "1.40203 ± 0.0042"}, {"measurement": "refractive index", "setting": "[1]; 298.15 K, x2 = 0.4567", "result": "1.40441 ± 0.0042"}, {"measurement": "refractive index", "setting": "[1]; 298.15 K, x2 = 0.5084", "result": "1.4065 ± 0.0042"}, {"measurement": "refractive index", "setting": "[1]; 298.15 K, x2 = 0.557", "result": "1.40855 ± 0.0042"}, {"measurement": "refractive index", "setting": "[1]; 298.15 K, x2 = 0.6022", "result": "1.41039 ± 0.0043"}, {"measurement": "refractive index", "setting": "[1]; 298.15 K, x2 = 0.6448", "result": "1.41217 ± 0.0043"}, {"measurement": "refractive index", "setting": "[1]; 298.15 K, x2 = 0.7117", "result": "1.41498 ± 0.0043"}, {"measurement": "refractive index", "setting": "[1]; 298.15 K, x2 = 0.7511", "result": "1.41672 ± 0.0043"}, {"measurement": "refractive index", "setting": "[1]; 298.15 K, x2 = 0.8027", "result": "1.41905 ± 0.0043"}, {"measurement": "refractive index", "setting": "[1]; 298.15 K, x2 = 0.849", "result": "1.42117 ± 0.0043"}, {"measurement": "refractive index", "setting": "[1]; 298.15 K, x2 = 0.9019", "result": "1.42364 ± 0.0043"}, {"measurement": "refractive index", "setting": "[1]; 298.15 K, x2 = 0.9429", "result": "1.42557 ± 0.0043"}, {"measurement": "refractive index", "setting": "[1]; 303.15 K, x2 = 0", "result": "1.38523 ± 0.0042"}, {"measurement": "refractive index", "setting": "[1]; 303.15 K, x2 = 0.0681", "result": "1.38748 ± 0.0042"}, {"measurement": "refractive index", "setting": "[1]; 303.15 K, x2 = 0.113", "result": "1.38906 ± 0.0042"}, {"measurement": "refractive index", "setting": "[1]; 303.15 K, x2 = 0.1576", "result": "1.39062 ± 0.0042"}, {"measurement": "refractive index", "setting": "[1]; 303.15 K, x2 = 0.1979", "result": "1.39212 ± 0.0042"}, {"measurement": "refractive index", "setting": "[1]; 303.15 K, x2 = 0.2343", "result": "1.39347 ± 0.0042"}, {"measurement": "refractive index", "setting": "[1]; 303.15 K, x2 = 0.3128", "result": "1.39635 ± 0.0042"}, {"measurement": "refractive index", "setting": "[1]; 303.15 K, x2 = 0.3603", "result": "1.3982 ± 0.0042"}, {"measurement": "refractive index", "setting": "[1]; 303.15 K, x2 = 0.4156", "result": "1.40034 ± 0.0042"}, {"measurement": "refractive index", "setting": "[1]; 303.15 K, x2 = 0.4485", "result": "1.40167 ± 0.0042"}, {"measurement": "refractive index", "setting": "[1]; 303.15 K, x2 = 0.4954", "result": "1.40355 ± 0.0042"}, {"measurement": "refractive index", "setting": "[1]; 303.15 K, x2 = 0.5505", "result": "1.4058 ± 0.0042"}, {"measurement": "refractive index", "setting": "[1]; 303.15 K, x2 = 0.5986", "result": "1.40783 ± 0.0042"}, {"measurement": "refractive index", "setting": "[1]; 303.15 K, x2 = 0.6407", "result": "1.40954 ± 0.0042"}, {"measurement": "refractive index", "setting": "[1]; 303.15 K, x2 = 0.6952", "result": "1.41187 ± 0.0043"}, {"measurement": "refractive index", "setting": "[1]; 303.15 K, x2 = 0.7401", "result": "1.41378 ± 0.0043"}, {"measurement": "refractive index", "setting": "[1]; 303.15 K, x2 = 0.7992", "result": "1.41643 ± 0.0043"}, {"measurement": "refractive index", "setting": "[1]; 303.15 K, x2 = 0.8559", "result": "1.41908 ± 0.0043"}, {"measurement": "refractive index", "setting": "[1]; 303.15 K, x2 = 0.8994", "result": "1.42109 ± 0.0043"}, {"measurement": "refractive index", "setting": "[1]; 303.15 K, x2 = 0.9411", "result": "1.42312 ± 0.0043"}, {"measurement": "speed of sound", "setting": "[2]; x2 = 0", "result": "1232.4 ± 2.3", "unit": "m/s"}, {"measurement": "speed of sound", "setting": "[2]; x2 = 0.1141", "result": "1254.3 ± 2.2", "unit": "m/s"}, {"measurement": "speed of sound", "setting": "[2]; x2 = 0.1516", "result": "1261.7 ± 2.2", "unit": "m/s"}, {"measurement": "speed of sound", "setting": "[2]; x2 = 0.2063", "result": "1273 ± 2.1", "unit": "m/s"}, {"measurement": "speed of sound", "setting": "[2]; x2 = 0.2588", "result": "1284 ± 2", "unit": "m/s"}, {"measurement": "speed of sound", "setting": "[2]; x2 = 0.3089", "result": "1294.7 ± 2", "unit": "m/s"}, {"measurement": "speed of sound", "setting": "[2]; x2 = 0.3594", "result": "1303.2 ± 1.9", "unit": "m/s"}, {"measurement": "speed of sound", "setting": "[2]; x2 = 0.4006", "result": "1315.3 ± 1.9", "unit": "m/s"}, {"measurement": "speed of sound", "setting": "[2]; x2 = 0.4488", "result": "1326.3 ± 1.9", "unit": "m/s"}, {"measurement": "speed of sound", "setting": "[2]; x2 = 0.4999", "result": "1338.5 ± 1.8", "unit": "m/s"}, {"measurement": "speed of sound", "setting": "[2]; x2 = 0.5466", "result": "1350 ± 1.8", "unit": "m/s"}, {"measurement": "speed of sound", "setting": "[2]; x2 = 0.5987", "result": "1363.1 ± 1.7", "unit": "m/s"}, {"measurement": "speed of sound", "setting": "[2]; x2 = 0.6581", "result": "1378.4 ± 1.7", "unit": "m/s"}, {"measurement": "speed of sound", "setting": "[2]; x2 = 0.7528", "result": "1404.2 ± 1.6", "unit": "m/s"}, {"measurement": "speed of sound", "setting": "[2]; x2 = 0.8029", "result": "1418.1 ± 1.6", "unit": "m/s"}, {"measurement": "speed of sound", "setting": "[2]; x2 = 0.8461", "result": "1430.7 ± 1.6", "unit": "m/s"}, {"measurement": "speed of sound", "setting": "[2]; x2 = 0.9017", "result": "1446.8 ± 1.6", "unit": "m/s"}, {"measurement": "speed of sound", "setting": "[2]; x2 = 0.9496", "result": "1460.9 ± 1.5", "unit": "m/s"}, {"measurement": "mass density", "setting": "[2]; x2 = 0", "result": "806.83 ± 2", "unit": "kg/m3"}, {"measurement": "mass density", "setting": "[2]; x2 = 0.1141", "result": "819.616 ± 2", "unit": "kg/m3"}, {"measurement": "mass density", "setting": "[2]; x2 = 0.1516", "result": "823.961 ± 2", "unit": "kg/m3"}, {"measurement": "mass density", "setting": "[2]; x2 = 0.2063", "result": "830.491 ± 2.1", "unit": "kg/m3"}, {"measurement": "mass density", "setting": "[2]; x2 = 0.2588", "result": "836.933 ± 2.1", "unit": "kg/m3"}, {"measurement": "mass density", "setting": "[2]; x2 = 0.3089", "result": "843.115 ± 2.1", "unit": "kg/m3"}, {"measurement": "mass density", "setting": "[2]; x2 = 0.3594", "result": "849.625 ± 2.1", "unit": "kg/m3"}, {"measurement": "mass density", "setting": "[2]; x2 = 0.4006", "result": "855.077 ± 2.1", "unit": "kg/m3"}, {"measurement": "mass density", "setting": "[2]; x2 = 0.4488", "result": "861.489 ± 2.1", "unit": "kg/m3"}, {"measurement": "mass density", "setting": "[2]; x2 = 0.4999", "result": "868.584 ± 2.1", "unit": "kg/m3"}]}
